Assay [1] concerns the target T1, Human Factor XIIa (hFXIIa) (Homo sapiens, UniProt P00748).
T1 construct: purchased Enzyme Research Laboratories
T1 sequence (P00748 373-615 limits assumed): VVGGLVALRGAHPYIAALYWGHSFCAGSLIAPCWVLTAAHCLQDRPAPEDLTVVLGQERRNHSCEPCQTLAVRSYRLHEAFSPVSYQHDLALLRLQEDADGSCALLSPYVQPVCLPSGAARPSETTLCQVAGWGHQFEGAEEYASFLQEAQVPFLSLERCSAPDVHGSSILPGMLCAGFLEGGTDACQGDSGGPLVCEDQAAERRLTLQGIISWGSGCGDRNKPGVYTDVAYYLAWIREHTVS
T1 sequence (P00748 20-372 partner limits assumed): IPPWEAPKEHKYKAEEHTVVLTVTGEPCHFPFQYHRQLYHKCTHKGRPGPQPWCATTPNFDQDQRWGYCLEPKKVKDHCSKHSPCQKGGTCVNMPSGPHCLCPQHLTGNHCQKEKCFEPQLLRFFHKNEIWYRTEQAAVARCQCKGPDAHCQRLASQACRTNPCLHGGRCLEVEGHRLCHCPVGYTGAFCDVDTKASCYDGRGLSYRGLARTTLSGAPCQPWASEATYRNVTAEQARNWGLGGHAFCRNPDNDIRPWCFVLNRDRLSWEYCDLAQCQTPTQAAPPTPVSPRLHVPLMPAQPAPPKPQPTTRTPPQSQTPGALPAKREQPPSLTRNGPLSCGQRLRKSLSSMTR
Kind of assay: Determination of Human Factor XIIa (hFXIIa) inhibition, fluorogenic substrate IC50 assay. The settings on record: fluorogenic substrate H-DPro-Phe-Arg-AFC at Km, 25° C., read-out: Human FXIIa IC50. It counts as biochemical. Here is the method: Determination of Human Factor XIIa (hFXIIa) inhibition
The Km for the cleavage of the substrate by hFXIIa was determined by standard transformation of the Michaelis-Menten equation, with subsequent inhibition assays performed at substrate Km concentration.

Assay [2] deals with FXa (Homo sapiens, UniProt P00742). Kind of assay: Related protease inhibition: FXa, fluorogenic substrate. Type of assay: biochemical. The settings on record: fluorogenic substrate at Km, 25° C.; H1-H3 = % activity at 40 μM. On the procedure: Human serine protease enzyme Plasma Kallikrein, KLK1, FXa, Plasmin, Thrombin and Trypsin were assayed for enzymatic activity using an appropriate fluorogenic substrate at Km concentration, FXIa at fixed substrate concentration of 100 μM and various concentrations of the test compound.
Sequence of FXa (P00742 235-488 limits assumed): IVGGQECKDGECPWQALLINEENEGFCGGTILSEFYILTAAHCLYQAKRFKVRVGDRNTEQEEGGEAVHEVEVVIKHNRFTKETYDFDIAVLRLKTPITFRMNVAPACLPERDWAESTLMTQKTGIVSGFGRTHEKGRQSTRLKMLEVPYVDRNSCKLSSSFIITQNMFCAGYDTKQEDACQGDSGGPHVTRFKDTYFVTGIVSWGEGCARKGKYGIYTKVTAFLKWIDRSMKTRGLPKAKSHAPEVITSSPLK
Sequence of FXa (P00742 41-179 partner limits assumed): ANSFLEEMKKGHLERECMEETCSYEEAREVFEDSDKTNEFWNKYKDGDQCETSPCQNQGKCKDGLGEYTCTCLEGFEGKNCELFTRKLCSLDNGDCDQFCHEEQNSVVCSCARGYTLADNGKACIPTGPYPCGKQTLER

As to `CN1C(=O)CCc2ccc(N3CCc4c(C(=O)NCC5CC5)nn(-c5cccc(Cl)c5)c4C3=O)cc21` [Example 1207, 1-(3-chlorophenyl)-N-(cyclopropylmethyl)-6-(1-methyl-2-oxo-1,2,3,4-tetrahydroquinolin-7-yl)-7-oxo-4,5,6,7-tetrahydro-1H-pyrazolo[3,4-c]pyridine-3-carboxamide], the IC50 in assay [1] is 3000 to 10000 nM; in assay [2] it was greater than 40000 nM.

For `COC(=O)C(NC(=O)c1nn(-c2cccc(Cl)c2)c2c1CCN(c1ccc3c(c1)C(=O)N(C)CC3)C2=O)c1cccnc1` (centres unmarked) [Example 1325, methyl 2-(1-(3-chlorophenyl)-6-(2-methyl-1-oxo-1,2,3,4-tetrahydroisoquinolin-7-yl)-7-oxo-4,5,6,7-tetrahydro-1H-pyrazolo[3,4-c]pyridine-3-carboxamido)-2-(pyridin-3-yl)acetate], the IC50 is 100 to 300 nM in assay [1] and 1000 to 3000 nM in assay [2].

Consider `CNC(=O)c1nn(-c2cccc(Cl)c2)c2c1CCN(c1ccc3c(c1)C(=O)N(C)CC3)C2=O` [Example 1334, 1-(3-chlorophenyl)-N-methyl-6-(2-methyl-1-oxo-1,2,3,4-tetrahydroisoquinolin-7-yl)-7-oxo-4,5,6,7-tetrahydro-1H-pyrazolo[3,4-c]pyridine-3-carboxamide], for which the concentration for half-maximal inhibition (IC50) was 300 to 1000 nM in assay [1] and greater than 40000 nM in assay [2].

As to `Cc1ccncc1CNC(=O)c1nn(-c2cccc(Cl)c2)c2c1CCN(c1ccc3c(c1)CN(CCO)CC3)C2=O` [Example 1110, 1-(3-chlorophenyl)-6-(2-(2-hydroxyethyl)-1,2,3,4-tetrahydroisoquinolin-7-yl)-N-((4-methylpyridin-3-yl)methyl)-7-oxo-4,5,6,7-tetrahydro-1H-pyrazolo[3,4-c]pyridine-3-carboxamide], the figures for the IC50 in assay [1] and in assay [2] were 10 to 100 nM and 10000 to 40000 nM, respectively.

For `CN1CCc2ccc(N3CCc4c(C(=O)NC5CCOCC5)nn(-c5cccc(Cl)c5)c4C3=O)cc2C1` [Example 1043, 1-(3-chlorophenyl)-6-(2-methyl-1,2,3,4-tetrahydroisoquinolin-7-yl)-7-oxo-N-(tetrahydro-2H-pyran-4-yl)-4,5,6,7-tetrahydro-1H-pyrazolo[3,4-c]pyridine-3-carboxamide], the figures for the IC50 in assay [1] and in assay [2] were 300 to 1000 nM and 3000 to 10000 nM, respectively.

On to `COc1ccnc(CNC(=O)c2nn(-c3cccc(Cl)c3)c3c2CCN(c2ccc4c(c2)CN(CCO)CC4)C3=O)c1` [Example 1230, 1-(3-chlorophenyl)-6-(2-(2-hydroxyethyl)-1,2,3,4-tetrahydroisoquinolin-7-yl)-N-((4-methoxypyridin-2-yl)methyl)-7-oxo-4,5,6,7-tetrahydro-1H-pyrazolo[3,4-c]pyridine-3-carboxamide], for which the values for the IC50 in assay [1] and in assay [2] were 10 to 100 nM and 10000 to 40000 nM, respectively.

As to `O=C(NCc1cccnc1)c1nn(-c2cccc(Cl)c2)c2c1CCN(c1ccc3c(c1)CN(CCO)CC3)C2=O` [Example 1078, 1-(3-chlorophenyl)-6-(2-(2-hydroxyethyl)-1,2,3,4-tetrahydroisoquinolin-7-yl)-7-oxo-N-(pyridin-3-ylmethyl)-4,5,6,7-tetrahydro-1H-pyrazolo[3,4-c]pyridine-3-carboxamide], the IC50 in assay [1] fell in the range of 10 to 100 nM; in assay [2], 3000 to 10000 nM.

Take `CN1CCc2ccc(N3CCc4c(C(=O)NCc5cccnn5)nn(-c5cccc(Cl)c5)c4C3=O)cc2C1=O` [Example 1202, 1-(3-chlorophenyl)-6-(2-methyl-1-oxo-1,2,3,4-tetrahydroisoquinolin-7-yl)-7-oxo-N-(pyridazin-3-ylmethyl)-4,5,6,7-tetrahydro-1H-pyrazolo[3,4-c]pyridine-3-carboxamide]: the IC50 in assay [1] is 300 to 1000 nM; in assay [2], greater than 40000 nM.

As for `CCNC(=O)c1nn(-c2cc(C)cc(CN)c2)c2c1CCN(c1ccc3c(c1)C(=O)N(C)CC3)C2=O` [Example 2024, 1-(3-(aminomethyl)-5-methylphenyl)-N-ethyl-6-(2-methyl-1-oxo-1,2,3,4-tetrahydroisoquinolin-7-yl)-7-oxo-4,5,6,7-tetrahydro-1H-pyrazolo[3,4-c]pyridine-3-carboxamide], the IC50 is 10 to 100 nM in assay [1] and greater than 40000 nM in assay [2].

As for `CN1CCc2ccc(N3CCc4c(C(=O)NCc5cccnc5)nn(-c5cccc(Cl)c5)c4C3=O)cc2C1` [Example 1015, 1-(3-chlorophenyl)-6-(2-methyl-1,2,3,4-tetrahydroisoquinolin-7-yl)-7-oxo-N-(pyridin-3-ylmethyl)-4,5,6,7-tetrahydro-1H-pyrazolo[3,4-c]pyridine-3-carboxamide], the IC50 in assay [1] was in the range of 100 to 300 nM; in assay [2] it was 10000 to 40000 nM.

`O=C(N[C@H](CO)c1ccccc1)c1nn(-c2cccc(Cl)c2)c2c1CCN(c1cccc(CN3CCCCC3)c1)C2=O` [Example 1008, (S)-1-(3-chlorophenyl)-N-(2-hydroxy-1-phenylethyl)-7-oxo-6-(3-(piperidin-1-ylmethyl)phenyl)-4,5,6,7-tetrahydro-1H-pyrazolo[3,4-c]pyridine-3-carboxamide]: the IC50 is 300 to 1000 nM in assay [1] and greater than 100000 nM in assay [2].

Turning to `Cc1ccncc1CNC(=O)c1nn(-c2cccc(Cl)c2)c2c1CCN(c1ccc3c(c1)C(=O)N(CCCO)CCO3)C2=O` [Example 1376, 1-(3-chlorophenyl)-6-(4-(3-hydroxypropyl)-5-oxo-2,3,4,5-tetrahydrobenzo[f][1,4]oxazepin-7-yl)-N-((4-methylpyridin-3-yl)methyl)-7-oxo-4,5,6,7-tetrahydro-1H-pyrazolo[3,4-c]pyridine-3-carboxamide], the IC50 was in the range of 10 to 100 nM in assay [1] and 3000 to 10000 nM in assay [2].

For `Cc1cc(CNC(=O)c2nn(-c3cccc(Cl)c3)c3c2CCN(c2ccc4c(c2)C(=O)N(CC2CCOC2)CC4)C3=O)nn1C` (centres unmarked) [Example 1258, 1-(3-chlorophenyl)-N-((1,5-dimethyl-1H-pyrazol-3-yl)methyl)-7-oxo-6-(1-oxo-2-((tetrahydrofuran-3-yl)methyl)-1,2,3,4-tetrahydroisoquinolin-7-yl)-4,5,6,7-tetrahydro-1H-pyrazolo[3,4-c]pyridine-3-carboxamide], the IC50 in assay [1] is 100 to 300 nM; in assay [2], greater than 40000 nM.

In the case of `Cc1ccncc1CNC(=O)c1nn(-c2cccc(C(F)(F)F)c2)c2c1CCN(c1ccc3c(c1)CN(CCO)CC3)C2=O` [Example 2009, 6-(2-(2-hydroxyethyl)-1,2,3,4-tetrahydroisoquinolin-7-yl)-N-((4-methylpyridin-3-yl)methyl)-7-oxo-1-(3-(trifluoromethyl)phenyl)-4,5,6,7-tetrahydro-1H-pyrazolo[3,4-c]pyridine-3-carboxamide], the results for the IC50 in assay [1] and in assay [2] were 100 to 300 nM and greater than 40000 nM, respectively.

Turning to `Cc1cc(CNC(=O)c2nn(-c3cccc(C#N)c3)c3c2CCN(c2ccc4c(c2)C(=O)N(C)CC4)C3=O)nn1C` [Example 2012, 1-(3-cyanophenyl)-N-((1,5-dimethyl-1H-pyrazol-3-yl)methyl)-6-(2-methyl-1-oxo-1,2,3,4-tetrahydroisoquinolin-7-yl)-7-oxo-4,5,6,7-tetrahydro-1H-pyrazolo[3,4-c]pyridine-3-carboxamide], the IC50 is 300 to 1000 nM in assay [1] and greater than 40000 nM in assay [2].

For the compound `Cc1ccncc1CNC(=O)c1nn(-c2cccc(Cl)c2)c2c1CCN(c1cccc(N3CCCCC3=O)c1)C2=O` [Example 1287, 1-(3-chlorophenyl)-N-((4-methylpyridin-3-yl)methyl)-7-oxo-6-(3-(2-oxopiperidin-1-yl)phenyl)-4,5,6,7-tetrahydro-1H-pyrazolo[3,4-c]pyridine-3-carboxamide], the values for the IC50 in assay [1] and in assay [2] were 300 to 1000 nM and 10000 to 40000 nM, respectively.

In the case of `CN1CCc2ccc(N3CCc4c(C(=O)NCc5ccccc5)nn(-c5cccc(Cl)c5)c4C3=O)cc2C1` [Example 1005, N-benzyl-1-(3-chlorophenyl)-6-(2-methyl-1,2,3,4-tetrahydroisoquinolin-7-yl)-7-oxo-4,5,6,7-tetrahydro-1H-pyrazolo[3,4-c]pyridine-3-carboxamide], the IC50 in assay [1] is 10 to 100 nM; in assay [2] it was 3000 to 10000 nM.

Consider `Cc1cc(CNC(=O)c2nn(-c3cccc(Cl)c3)c3c2CCN(c2ccc4c(c2)C(=O)N(C)C4)C3=O)nn1C` [Example 1206, 1-(3-chlorophenyl)-N-((1,5-dimethyl-1H-pyrazol-3-yl)methyl)-6-(2-methyl-3-oxoisoindolin-5-yl)-7-oxo-4,5,6,7-tetrahydro-1H-pyrazolo[3,4-c]pyridine-3-carboxamide], for which the IC50 in assay [1] was 1000 to 3000 nM; in assay [2], greater than 40000 nM.

`Cc1ccncc1CNC(=O)c1nn(-c2cccc(Cl)c2)c2c1CCN(c1ccc3c(c1)C(=O)N(CCO)CCC3)C2=O` [Example 1306, 1-(3-chlorophenyl)-6-(2-(2-hydroxyethyl)-1-oxo-2,3,4,5-tetrahydro-1H-benzo[c]azepin-8-yl)-N-((4-methylpyridin-3-yl)methyl)-7-oxo-4,5,6,7-tetrahydro-1H-pyrazolo[3,4-c]pyridine-3-carboxamide]: the IC50 was 10 to 100 nM in assay [1] and 10000 to 40000 nM in assay [2].
